Source: US20260027243A1, “AMPHIPHILIC COMPOUNDS FOR ATTENUATING NEUROTOXICITY OF AMYLOID-beta OLIGOMERS AND DIAGNOSTIC METHODS” (THE BOARD OF TRUSTEES OF THE UNIVERSITY OF ILLINOIS, priority 2022, published 2026)
Where two headings read alike, the source gives them in different places.

What was measured:
Aβ oligomers = settings: cited from earlier work
Aβ42 oligomers = target: T1, Aβ42 oligomers (Homo sapiens, UniProt P05067); test: Fluorescence saturation binding assay with Aβ42 oligomers; settings: for Kd: read-out: Kd, Oligomers; for binding affinity to oligomers compared with fibrils (Kd comparison): amphiphilic ZY compounds
T1 construct: commercial Aβ42 monomer powder (from GL biochem); purchased GL biochem
Procedure: Aβ42 oligomers: The 0.5 mg monomeric films were dissolved in 1.1 mL PBS buffer (with final DMSO concentration less than 1%) and incubated at 4° C. overnight. The resulting solution was then centrifuged at 3000 rpm for 15 mins to remove the insoluble aggregates. The clear supernatant was then used for the following experiments. Aβ42 oligomers concentration was checked by measuring the absorbance of the supernatant at 280 nm.
(§1) In Vitro Saturation Binding Studies with Aβ42 Fibrils and Aβ42 Oligomers. To a solution of increasing concentrations of compounds, a fixed concentration of the generated aggregated Aβ42 fibrils or Aβ42 oligomers solutions (5 to 15 NM) was added to yield a total volume of 100 μL. Nonspecific binding was determined […]. The mixture was incubated for 15 min at room temperature. All fluorescence data were obtained on a SpectraMax M2e plate reader (Molecular Devices). The fluorescent intensity was measured at the corresponding emission wavelength of each compound, and the Kd binding curves were generated by GraphPad Prism 8.0 with one site-specific binding model. Equation: Y=Bmax*X/(Kd+X).

[1] = Log D by octanol-PBS partition; type: physicochemical; settings: DCM compounds
Procedure: Log D measurements. The Log D value was measured following a published procedure using slight modifications. In general, compounds in 0.5 mL octanol was subjected to partition with 0.5 mL octanol-saturated PBS. The whole mixture was stirred vigorously for 5 min, and centrifuged at 2,000 rpm for 5 min. The top octanol layer was separated for later fluorescence measurement. The remaining PBS layer was partitioned with 0.5 mL PBS-saturated octanol, and the second top octanol layer was then separated after vigorous stirring and centrifuging at 2,000 rpm for another 5 min. The two octanol layers' fluorescence spectra were recorded. The log D value was calculated by the fluorescence intensity ratio at the compounds' emission wavelength for the above two octanol extractions.

Aβ42 fibrils = target: T2, Aβ42 fibrils (Homo sapiens, UniProt P05067); test: Fluorescence saturation binding assay with Aβ42 fibrils; settings: read-out: Kd, Fibrils
T2 construct: commercial Aβ42 monomer powder (from GL biochem); purchased GL biochem
Procedure: Preparation of the Aβ42 Fibrils and Aβ42 Oligomers. Aβ42 fibrils: 1 mg of commercial Aβ42 monomer powder (from GL biochem) was dissolved in 1 mL 1,1,1,3,3,3-hexafluoro-2-propanol (HFIP) at room temperature and incubated for 1 h. The resulting solution was divided equally into two Eppendorf tubes. The solution in each Eppendorf tube containing 0.5 mg Aβ42 monomer was then evaporated overnight and dried by vacuum centrifuge to generate monomeric films. […] Aβ42 fibrils solution was prepared by dissolving the 0.5 mg monomeric films in 1.1 mL PBS buffer (with final DMSO concentration less than 1%) and stirring at 37° C. for 3 days.
as §1

[2] = tested on: Cu^2+-Aβ42-induced toxicity in Neuro2A cells; test: Cu2+-Aβ42-induced toxicity, Alamar blue cell viability; type: cell-based, mouse; settings: [Aβ42]=40 μM, [Cu^2+]=40 μM, compound 10 μM (ZY-12-OMe 5 μM)
Procedure: FIG. 6. Cell viability results upon incubation of Neuro2A cells with monomeric Aβ42 in the presence or absence of metal ions and amphiphilic compounds. Concentrations: [Aβ42]=40 μM, [Cu^2+]=40 μM, [ZY-12-MT]=[ZY-15-OMe]=[ZY-15-MT]=[ZY-17-MT]=[ZY-5-OMe]=[ZY-5-MT]=[ZY-5-DT]=10 μM, [ZY-12-OMe]=5 μM. The error bars represent the standard deviation from five independent experiments, and the statistical analysis was evaluated according to one-way ANOVA (*p<0.05).
For the Cu^2+-Ap-induced toxicity studies, cells treated were monomeric Aβ42, Cu^2+, monomeric Aβ42+Cu^2+, and monomeric Aβ42+Cu^2++ compounds, respectively. After 40 h incubation, Alamar Blue solution (10 μL) was added, and the cells were incubated for another 90 min at 37° C. The fluorescence intensity of each well was measured at 590 nm (excitation wavelength=560 nm).

[3] = tested on: mouse neuroblastoma N2a cells; test: Alamar blue cytotoxicity in N2a cells; type: cell-based; settings: for relative cytotoxicity: comparison among compounds
Procedure: Cytotoxicity Studies. Alamar Blue assay was chosen for the cytotoxicity studies. Mouse neuroblastoma Neuro2A (N2A) cells were grown with DMEM/10% FBS in a petri dish at 37° C. in a humidified atmosphere with 5% CO2. Then N2A cells were seeded in a 96-well plate (1.0×10^4/well). After 24 h incubation, cell media was changed to DMEM/N-2, and N2A cells were incubated for another 1 h. Then the cells were treated with different concentrations of compounds for 40 h, Alamar Blue solution (10 μL) was added, and the cells were incubated for another 90 min at 37° C. The fluorescence intensity of each well was measured at 590 nm (excitation wavelength=560 nm).

T2 sequence (P05067 672-713 limits assumed): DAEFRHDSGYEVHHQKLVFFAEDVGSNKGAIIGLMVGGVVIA
T1 sequence (P05067 672-713 limits assumed): as above

CCOc1cccc(C=Cc2cc(C)c3n2[B-](F)(F)[N+]2=C(CCC(=O)OCC(Cl)(Cl)Cl)C=CC2=C3)c1O [BD-Oligo]
Kd (Aβ oligomers; reported oligomer-selective probes): 400 nM

CCN(CC)c1ccc(/C=C/C2=[O+][B-](F)(F)OC(/C=C/c3ccc(N(CC)CC)nc3)=C2CCCOc2c(C)cccc2C)cn1 [CRANAD-102]
Kd (Aβ oligomers; reported values): 7.5 nM

CN1CCN(C)CCN(Cc2cc(/C=C/C3=CC(=C(C#N)C#N)c4ccccc4O3)cc(CN3CCN(C)CCN(C)CC3)c2O)CC1 [DCM-OH-1-DT, (E)-2-(2-(3,5-bis((4,7-dimethyl-1,4,7-triazonan-1-yl)methyl)-4-hydroxystyryl)-4H-chromen-4-ylidene)malononitrile]
Kd (Aβ42 oligomers; Table 3, DCM compounds): 2880 ± 540 nM
logD [1]: 1.51 ± 0.018
Kd (Aβ42 fibrils; Table 3, DCM compounds): 1850 ± 190 nM

CN1CCN(C)CCN(Cc2cc(/C=C/C3=CC(=C(C#N)C#N)c4ccccc4O3)ccc2O)CC1 [DCM-OH-1-MT, (E)-2-(2-(3-((4,7-dimethyl-1,4,7-triazonan-1-yl)methyl)-4-hydroxystyryl)-4H-chromen-4-ylidene)malononitrile]
Kd (Aβ42 oligomers; Table 3, DCM compounds): 670 ± 190 nM
logD [1]: 1.65 ± 0.06
Kd (Aβ42 fibrils; Table 3, DCM compounds): 580 ± 70 nM

N#CC(C#N)=C1C=C(/C=C/c2ccc(O)cc2)Oc2ccccc21 [DCM-OH-1]
logD [1]: 1 ± 0.04

CN1CCN(C)CCN(Cc2cc(/C=C/c3ccc(-c4ccc(N(C)C)cc4)s3)cc(CN3CCN(C)CCN(C)CC3)c2O)CC1 [ZY-5-DT, (E)-2,6-bis((4,7-dimethyl-1,4,7-triazonan-1-yl)methyl)-4-(2-(5-(4-(dimethylamino)phenyl)thiophen-2-yl)vinyl)phenol]
Kd (Aβ42 oligomers; Table 1, amphiphilic compounds): 2090 ± 360 nM
Kd (Aβ42 fibrils; Table 1, amphiphilic compounds): 1670 ± 190 nM

CN1CCN(C)CCN(Cc2cc(/C=C/c3ccc(-c4ccc(N(C)C)cc4)s3)ccc2O)CC1 [ZY-5-MT, (E)-2-((4,7-dimethyl-1,4,7-triazonan-1-yl)methyl)-4-(2-(5-(4-(dimethylamino)phenyl)thiophen-2-yl)vinyl)phenol]
Kd (Aβ42 oligomers; Table 1, amphiphilic compounds): 460 ± 60 nM
binding affinity to oligomers compared with fibrils (Kd comparison) (Aβ42 oligomers): higher binding affinity to oligomers over fibrils
selectivity to Aβ oligomers over Aβ fibrils (Aβ42 oligomers; ratio of Kd values): 3.9 times
Kd (Aβ42 fibrils; Table 1, amphiphilic compounds): 1820 ± 130 nM

COc1cc(/C=C/c2ccc(-c3ccc(N(C)C)cc3)s2)cc(CN2CCN(C)CCN(C)CC2)c1O [ZY-5-OMe, (E)-2-((4,7-dimethyl-1,4,7-triazonan-1-yl)methyl)-4-(2-(5-(4-(dimethylamino)phenyl)thiophen-2-yl)vinyl)-6-methoxyphenol]
Kd (Aβ42 oligomers; Table 1, amphiphilic compounds): 1040 ± 150 nM
effect on cell viability under Cu^2+-Aβ42 toxicity [2]: significantly increase cell viability
Kd (Aβ42 fibrils; Table 1, amphiphilic compounds): 680 ± 100 nM

CN1CCN(C)CCN(Cc2cc(-c3ccc(/C=C/c4ccc(N(C)C)cc4)s3)cc(CN3CCN(C)CCN(C)CC3)c2O)CC1 [ZY-12-DT, (E)-2,6-bis((4,7-dimethyl-1,4,7-triazonan-1-yl)methyl)-4-(5-(4-(dimethylamino)styryl)thiophen-2-yl)phenol]
Kd (Aβ42 oligomers; Table 1, amphiphilic compounds): 670 ± 150 nM
binding affinity to oligomers compared with fibrils (Kd comparison) (Aβ42 oligomers): higher binding affinity to oligomers over fibrils
relative cytotoxicity [3]: higher citotoxicity than others
Kd (Aβ42 fibrils; Table 1, amphiphilic compounds): 1380 ± 240 nM

CN1CCN(C)CCN(Cc2cc(-c3ccc(/C=C/c4ccc(N(C)C)cc4)s3)ccc2O)CC1 [ZY-12-MT, (E)-2-((4,7-dimethyl-1,4,7-triazonan-1-yl)methyl)-4-(5-(4-(dimethylamino)styryl)thiophen-2-yl)phenol]
Kd (Aβ42 oligomers; Table 1, amphiphilic compounds): 6270 ± 1010 nM
effect on cell viability under Cu^2+-Aβ42 toxicity [2]: significantly increase cell viability
Kd (Aβ42 fibrils; Table 1, amphiphilic compounds): 4190 ± 870 nM

COc1cc(-c2ccc(/C=C/c3ccc(N(C)C)cc3)s2)cc(CN2CCN(C)CCN(C)CC2)c1O [ZY-12-OMe, (E)-2-((4,7-dimethyl-1,4,7-triazonan-1-yl)methyl)-4-(5-(4-(dimethylamino)styryl)thiophen-2-yl)-6-methoxyphenol]
Kd (Aβ42 oligomers; Table 1, amphiphilic compounds): 320 ± 40 nM
binding affinity to oligomers compared with fibrils (Kd comparison) (Aβ42 oligomers): higher binding affinity to oligomers over fibrils
cell viability ([3]; at 5 μM): more than 75%
cell viability ([3]; at 10 μM): less than 50%
relative cytotoxicity [3]: higher citotoxicity than others
Kd (Aβ42 fibrils; Table 1, amphiphilic compounds): 390 ± 40 nM

CN1CCN(C)CCN(Cc2cc(/C=C/c3ccc(-c4ccc(C=O)cc4)s3)cc(CN3CCN(C)CCN(C)CC3)c2O)CC1 [ZY-15-DT, (E)-4-(5-(3,5-bis((4,7-dimethyl-1,4,7-triazonan-1-yl)methyl)-4-hydroxystyryl)thiophen-2-yl)benzaldehyde]
Kd (Aβ42 oligomers; Table 1, amphiphilic compounds): 4550 ± 320 nM
Kd (Aβ42 fibrils; Table 1, amphiphilic compounds): 1270 ± 100 nM

COc1cc(OC)cc(-c2ccc(/C=C/c3cc(CN4CCN(C)CCN(C)CC4)c(O)c(CN4CCN(C)CCN(C)CC4)c3)cc2)c1 [ZY-17-DT, (E)-4-(2-(3′,5′-dimethoxy-[1,1′-biphenyl]-4-yl)vinyl)-2,6-bis((4,7-dimethyl-1,4,7-triazonan-1-yl)methyl)phenol]
Kd (Aβ42 oligomers; Table 1, amphiphilic compounds): 1030 ± 200 nM
binding affinity to oligomers compared with fibrils (Kd comparison) (Aβ42 oligomers): higher binding affinity to oligomers over fibrils
relative cytotoxicity [3]: higher citotoxicity than others
Kd (Aβ42 fibrils; Table 1, amphiphilic compounds): 2250 ± 460 nM

COc1cc(OC)cc(-c2ccc(/C=C/c3ccc(O)c(CN4CCN(C)CCN(C)CC4)c3)cc2)c1 [ZY-17-MT, (E)-4-(2-(3′,5′-dimethoxy-[1,1′-biphenyl]-4-yl)vinyl)-2-((4,7-dimethyl-1,4,7-triazonan-1-yl)methyl)phenol]
Kd (Aβ42 oligomers; Table 1, amphiphilic compounds): 2080 ± 340 nM
Kd (Aβ42 fibrils; Table 1, amphiphilic compounds): 940 ± 70 nM

COc1cc(OC)cc(-c2ccc(/C=C/c3cc(CN4CCN(C)CCN(C)CC4)c(O)c(OC)c3)cc2)c1 [ZY-17-OMe, (E)-4-(2-(3′,5′-dimethoxy-[1,1′-biphenyl]-4-yl)vinyl)-2-((4,7-dimethyl-1,4,7-triazonan-1-yl)methyl)-6-methoxyphenol]
Kd (Aβ42 oligomers; Table 1, amphiphilic compounds): 120 nM
binding affinity to oligomers compared with fibrils (Kd comparison) (Aβ42 oligomers): higher binding affinity to oligomers over fibrils
relative cytotoxicity [3]: the highest toxicity
Kd (Aβ42 fibrils; Table 1, amphiphilic compounds): 180 ± 20 nM
